Experimental data: patent publication US7008931B2, “Anti-inflammatory and healing medicine based on laminarin sulphate” (Laboratoires GOEMAR S.A., priority 2000, dated 2006)

What was measured:
[1] = test system: edema of the ear of the mouse induced with croton oil; experiment: edema of the ear of the mouse induced with croton oil; format: in vivo; conditions: for equipotent amount per ear for inhibition of inflammation: topical, with 70 μg croton oil, 4 hours
Procedure: The topic activity which inhibits inflammation and which is presented by laminarin sulphate, has been tested in the model constituted by the edema of the ear of the mouse induced with croton oil. The control was indomethacin. The tested animals were male mice of the type Swiss CD-1 whose weight was 20 to 25 g. Three groups of tests were carried out on three groups of animals. The first group is a negative control group wherein only the pro-inflammatory agent consisting of croton oil was used. The second group is a positive control group and comprises the use of croton oil and of indomethacin (200 nMol/ear which corresponds to 71.56 μg/ear). The third group relates to the use of laminarin sulphate and comprises the use of 70 μg of croton oil and of increasing amounts of laminarin sulphate (100, 250, 500, 750 and 1000 μg/ear).
In the case of the control groups, of the group of reference and of the group comprising the use of the different concentrations of laminarin sulphate, 10 mice were used each time. […] On each ear (surface of about 1 cm^2) 70 μg of croton oil were applied at the same time as indomethacin or laminarin sulphate or dexamethasone. Four hours later, samples having a diameter of 7 mm were cut up and weighed.
For the statistical exploitation an analysis of the variance (ANOVA) as well as the Scheffe test were carried out.

[2] = test system: complement system (obtained from human serum), classical route; experiment: inhibition of the activation of the complement by the classical route (hemolysis of sheep antibody-sensitized erythrocytes); format: biochemical
Description: (§1) Test 1: Measuring of the Anti-Complementary Activity
(§2) The complement system plays a key role in the inflammatory processes induced by infections. The substances which inhibit in vitro the activation of the complement are potentially in vivo anti-inflammatory products.
(§3) The activation of the complement can be carried out by the classical route in which the system antigen-antibody plays a role, or by the so-called alternative route. The anti-complementary activity of laminarin sulphate has been examined in vitro in comparison to that of the above heparin of low molecular weight used as reference (HBPM).
(§4) The evaluation of the anti-complementary reactivity is carried out by photometric or colorimetric measurement of the hemoglobin freed by lysis of the erythrocytes. The erythrocytes used are sheep antibody-sensitized erythrocytes for the classical route and rabbit erythrocytes for the altern route.
(§5) In a first step, the product to be tested and the complement system (obtained from human serum) are put into contact with one another and if necessary incubated during 30 minutes and then, in a second step, they are put into contact with the erythrocytes during 45 minutes.
(§6) The more the test product inhibits the complement, the more the lysis of the erythrocytes is weak and the less the amount of freed hemoglobin is important.
(§7) The anti-complementary activity is expressed in IC (50) (IC meaning “inhibiting concentration”) which designates the concentration expressed in […] of test substance per ml of mixture of the test substance and the serum (μg/ml), concentration which is necessary to inhibit by 50% the activity of the complement.

[3] = test system: complement system (obtained from human serum), alternative route; experiment: inhibition of the activation of the complement by the alternative route (hemolysis of rabbit erythrocytes); format: biochemical; conditions: for IC (50), inhibition of the complement by the alternative route: laminarin sulphate without incubation
Description: as §1, §2, §3, §4, §5, §6, §7

[4] = test system: polymorphnuclear neutrophiles (PMN); experiment: chemotaxy of granulocytes, Boyden Chamber test with C5a (human serum activated with Zymosan); format: cell-based
Description: Test 2: Examination of the Influence on the Chemiotaxy of the Granulocytes
The polymorphnuclear neutrophiles or PMN are cells which are characteristic of the infiltrate of the acute inflammation. The movement or the migration of neutrophiles from inside of the blood vessels in direction of the tissues is provoked by molecules which are called chemotaxins. Two chemotaxins are particularly important in the case of the polynuclear neutrophiles, i.e. the fragment C5a of the complement and the interleukin 8 (IL-8). The movement of the neutrophiles can be aleatory (which means that a so called chemokinesis occurs) or can be oriented along the length of a gradient of chemotaxins.
Consequently, the ability of laminarin sulphate to inhibit the chemotaxy of […] was examined; this study has been carried out in vitro by way of the test called Test of the Boyden Chamber (a variant of the Boyden Chamber having 96 holes was used) the fragment C5a in the form of human serum activated with Zymosan having been used as chemiotaxin. As shown on FIG. 2, the Boyden Chamber comprises 2 compartments respectively 1 and 2 which are separated by a membrane 3 consisting of polycarbonate (dimension of the pores 3 μm). The pores of the said membrane authorize the active passing of the cells but not their passive diffusion.
The polymorphnuclear neutrophiles PMN are placed in the higher compartment 2 together with the substance to be tested at various doses. The C5a is placed in the lower compartment.
The measurement of the inhibition of the chemotaxy is carried out by numbering the cells which have been attracted in the lower compartment. For the numbering of the cells, they are lysed with Triton X, and the free peroxidase is then quantified by adding 2,2-azino-di-[3-ethylbenzo-thiazoline] sulfonate or ABTS marketed by Boehringer Mannheim and by measuring at 405 nm the extinction of the colored product which has been formed.

[5] = test system: human chimera Fc of L-selectin; experiment: cellular adhesion on immobilized L-selectin under static conditions (LS 180 cells); format: cell-based
Description: (§8) Test 3: Influence on the Adhesion of the Cells Induced by Selectin
(§9) Consequently, the effect of laminarin sulphate has been examined through the direct quantification of the cells bond to the selectins immobilized on microplates.
(§10) The influence of the laminarin sulphate on the adhesion of the cells due to the selectins has been studied first under static conditions as schematically shown on FIG. 3a (E-selectins or P-selectins) and 3b (L-selectins). The selectin has been deposited on a microtitration plate; in that respect and in the case of L-selectin the human chimera Fc of L-selectin has been used. Then, the plate was incubated with the test substance and with cells carrying the ligands of the corresponding selecting, that is to say in the case of L-selectin the human cellular line LS 180 of the adenocarcinoma of the colon and in the case of the selectins P and E the human lymphomic cellular line U 937.
(§11) The number of cells bond to the microtitration plate after washing and subsequent lysis of these cells was determined and their lactate dehydrogenase content was determined by way of an enzymatic reaction.

P-selectin = biological target: T1, P-selectin (Homo sapiens, UniProt P16109); experiment: cellular adhesion on immobilized P-selectin under static conditions (U 937 cells); format: cell-based
T1 sequence (P16109 42-830): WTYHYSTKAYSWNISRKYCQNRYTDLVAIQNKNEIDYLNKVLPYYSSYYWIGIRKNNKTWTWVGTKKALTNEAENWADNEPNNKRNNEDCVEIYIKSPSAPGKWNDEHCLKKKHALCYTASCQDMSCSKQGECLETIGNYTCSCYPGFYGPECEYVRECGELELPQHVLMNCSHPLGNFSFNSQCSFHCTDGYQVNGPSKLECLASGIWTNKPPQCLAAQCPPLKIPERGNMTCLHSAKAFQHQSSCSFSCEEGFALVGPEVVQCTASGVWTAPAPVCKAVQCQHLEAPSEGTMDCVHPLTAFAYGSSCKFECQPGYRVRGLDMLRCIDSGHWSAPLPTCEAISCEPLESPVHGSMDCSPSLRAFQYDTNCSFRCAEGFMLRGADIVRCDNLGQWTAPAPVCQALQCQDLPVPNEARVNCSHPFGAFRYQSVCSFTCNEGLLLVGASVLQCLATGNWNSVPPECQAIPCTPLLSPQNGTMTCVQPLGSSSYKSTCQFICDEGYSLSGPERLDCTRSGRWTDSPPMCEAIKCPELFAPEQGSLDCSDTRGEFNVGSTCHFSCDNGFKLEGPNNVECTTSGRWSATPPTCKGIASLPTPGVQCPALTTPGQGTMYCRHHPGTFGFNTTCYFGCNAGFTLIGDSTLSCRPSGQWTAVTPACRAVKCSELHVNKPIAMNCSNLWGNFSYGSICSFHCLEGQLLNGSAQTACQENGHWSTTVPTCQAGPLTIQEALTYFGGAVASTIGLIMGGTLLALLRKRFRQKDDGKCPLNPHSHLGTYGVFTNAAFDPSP
Description: as §8, §9, §10, §11

thrombin [6] = experiment: duration of the thrombin coagulation test; format: biochemical
Description: (§12) The anti-coagulant activity which depends from the concentration of laminarin sulphate has been determined in comparison with that of heparin in the classical coagulation tests APTT or “Aktivierte partielle Thromboplastin-Zeit”, of the duration of the prothrombin, by way of the test so called “HEPTEST” and the duration of the thrombin. The APTT reflects an interaction with the intrinsic system of the coagulation while the duration of prothrombin reflects an interaction with the extrinsic coagulation; the so called “HEPTEST” is a classical test for the measurement of the inhibiting activity of heparin with respect to the Xa factor and the duration of thrombin corresponds to the last step of the coagulation, i.e. the formation of fibrins induced by the thrombin. In contradiction with that of heparin, the activity of laminarin sulphate in the so called “HEPTEST” is more than 20 times weaker. […] The specific activity (IU/mg) in the APTT represents 30% of the activity of heparin and in the case of the duration of thrombin it represents 60%. In order to totally prevent the coagulation it is convenient to use in the case of APTT a concentration 4 times higher and in the case of the duration of thrombin a concentration 20 times higher.

thrombin [7] = experiment: specific anti-thrombin test using chromogeneous substrates; format: biochemical
Description: (§13) The effect in the case of the duration of thrombin can be considered as being due to an inhibition of thrombin dependent from the cofactor II heparin. […] For that reason and due to the better effect in the systems of anti-inflammatory tests, the profile “utility/risk” moves in the case of laminarin sulphate unequivocally in the sense of an anti-inflammatory effect. It follows that the anti-inflammatory properties of laminarin sulphate can be advantageously used without the apprehension of undesirable side effects on coagulation.

Xa factor = experiment: HEPTEST coagulation test; format: biochemical; conditions: relative to heparin
Description: as §12

[8] = test system: MDA-MB-231, MCF, U937, LS180 cellular lines; experiment: cytotoxicity tests (5 days proliferation with crystal violet or MTT, acute LDH kit); format: cell-based, human; conditions: highest tested concentration, 100 μg/ml
Procedure: In order to test cytoxicity, the following cellular lines were used: MDA-MB-231 (human mammary carcinoma); MCF (human mammary carcinoma); U937—(human lymphoma); and, LS180 (human adenocarcinoma).
The test used is a 5 days proliferation test and the determination of the number of living cells was carried out by coloration with crystallin violet or crystallin purple. A 5 day proliferation test with determination of the number of living cells using the test MTT has also been carried out. Finally the acute cytotoxicity has been determined using a kit marketed by the company Boehringer Mannheim under the title “Cytotoxicity detection kit” (LDH).

extrinsic coagulation = experiment: duration of the prothrombin coagulation test; format: biochemical
Description: as §12

[9] = test system: intrinsic system of the coagulation; experiment: coagulation test APTT; format: biochemical
Description: as §12

factor Xa = experiment: specific anti-factor Xa test using chromogeneous substrates; format: biochemical
Description: as §13

Chain of human chimera Fc of L-selectin (P14151 39-318 limits assumed, change not shown): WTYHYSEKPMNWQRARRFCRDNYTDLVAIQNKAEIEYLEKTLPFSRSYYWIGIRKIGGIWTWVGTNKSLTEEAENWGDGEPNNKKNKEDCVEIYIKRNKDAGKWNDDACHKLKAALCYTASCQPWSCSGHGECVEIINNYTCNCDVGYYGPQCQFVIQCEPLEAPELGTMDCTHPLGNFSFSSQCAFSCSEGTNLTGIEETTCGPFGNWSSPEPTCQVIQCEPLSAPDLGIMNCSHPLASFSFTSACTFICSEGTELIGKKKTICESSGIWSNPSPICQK

## COc1ccc2c(c1)c(CC(=O)O)c(C)n2C(=O)c1ccc(Cl)cc1 [indomethacin, reference compound]
[1]
  equipotent amount per ear for inhibition of inflammation: 72 μg per ear

## heparin [reference compound]
[2]
  IC (50), inhibition of the activation of the complement by the classical way: 43.7 ± 1.9 µg/mL
[3]
  IC (50), inhibition of the complement by the alternative route: 464 µg/mL
[4]; 1.67 μg/ml
  inhibition of the cellular migration: not inhibited
[4]; 4.2 μg/ml
  inhibition of the cellular migration: 10%±5%
[5]; 5 μg/ml
  Inhibition expressed in % of the cellular adhesion on L-selectin: 15 ± 5%
[5]; 25 μg/ml
  Inhibition expressed in % of the cellular adhesion on L-selectin: 32 ± 3%
P-selectin; 5 μg/ml
  Inhibition expressed in % of the cellular adhesion on P-selectin: 12 ± 5%
P-selectin; 25 μg/ml
  Inhibition expressed in % of the cellular adhesion on P-selectin: 30 ± 4%

## laminarin sulphate
Thrombin [6]; duration of thrombin
  concentration to totally prevent the coagulation, times higher than heparin: 20 times
Thrombin [6]; relative to heparin
  specific activity (IU/mg) in the duration of thrombin as % of the activity of heparin: 60%
Thrombin [7]
  anti-thrombin activity: nor an anti-thrombin activity
Xa factor
  activity in the HEPTEST, times weaker than heparin: more than 20 times
[2]
  IC (50), inhibition of the activation of the complement by the classical way: 0.54 ± 0.06 µg/mL
  times more active on the inhibition of the complement than heparin: 80 times
[3]
  times more active on the inhibition of the complement than heparin: 10 times
  IC (50), inhibition of the complement by the alternative route: 43 µg/mL
[3]; dose of 2.4 μg/ml
  prolongation of the activity of the complement: 50%
[3]; laminarin sulphate at low concentrations
  prolongation of the activity of the complement: more than 100%
[4]; 1.67 μg/ml
  inhibition of the cellular migration: 50%±6%
[5]; 5 μg/ml
  Inhibition expressed in % of the cellular adhesion on L-selectin: 33 ± 1%
[5]; 25 μg/ml
  Inhibition expressed in % of the cellular adhesion on L-selectin: 89 ± 10%
P-selectin; 5 μg/ml
  Inhibition expressed in % of the cellular adhesion on P-selectin: 50 ± 2%
P-selectin; 25 μg/ml
  Inhibition expressed in % of the cellular adhesion on P-selectin: 63 ± 3%
[1]; 25 nMol laminarin sulphate vs 200 nMol indomethacin
  times more active than indomethacin from the molar point of view: nine
[1]; control experiment, applied after croton oil
  inhibiting activity when applied after croton oil instead of simultaneously: no difference
[1]; equimolar concentration of 0.12 mmol/ear
  efficiency compared with dexamethasone: more efficient than dexamethasone
[1]
  equipotent amount per ear for inhibition of inflammation: 250 μg per ear
[8]
  cytotoxic effect: no cytotoxic effect was noticed
Extrinsic coagulation
  anti-coagulant effect on the duration of prothrombin: no pronounced anti-coagulant effect
[9]; APTT
  concentration to totally prevent the coagulation, times higher than heparin: 4 times
[9]; relative to heparin
  specific activity (IU/mg) in the APTT as % of the activity of heparin: 30%
Factor Xa
  anti-factor Xa activity dependent from anti-thrombin: does not present a significant anti-factor Xa activity
